Assays:
Conditions in all cases: 72 h
U2OS [1] = assay: cell viability relative to DMSO; higher = less toxic
Calu-3 [2] = assay: as above
Caco-2 [3] = assay: as above
HepG2 [4] = assay: as above
Vero E6 [5] = assay: as above
U2OS [6] = assay: drug sensitivity score (DSS) for viability; higher = more toxic; extreme values may be limits of the assay
Calu-3 [7] = assay: as above
Caco-2 [8] = assay: as above
HepG2 [9] = assay: as above
Vero E6 [10] = assay: as above
U2OS [11] = assay: relative viability EC50 (midpoint between 100% and the lowest measured viability); higher = less toxic
Calu-3 [12] = assay: as above
Caco-2 [13] = assay: as above
HepG2 [14] = assay: as above
Vero E6 [15] = assay: as above

Row | SMILES | cell viability (U2OS [1]; 1 nM) [%] | cell viability (U2OS [1]; 10 nM) [%] | cell viability (U2OS [1]; 100 nM) [%] | cell viability (U2OS [1]; 1000 nM) [%] | cell viability (U2OS [1]; 10000 nM) [%] | cell viability (Calu-3 [2]; 1 nM) [%] | cell viability (Calu-3 [2]; 10 nM) [%] | cell viability (Calu-3 [2]; 100 nM) [%] | cell viability (Calu-3 [2]; 1000 nM) [%] | cell viability (Calu-3 [2]; 10000 nM) [%] | cell viability (Caco-2 [3]; 1 nM) [%] | cell viability (Caco-2 [3]; 10 nM) [%] | cell viability (Caco-2 [3]; 100 nM) [%] | cell viability (Caco-2 [3]; 1000 nM) [%] | cell viability (Caco-2 [3]; 10000 nM) [%] | cell viability (HepG2 [4]; 1 nM) [%] | cell viability (HepG2 [4]; 10 nM) [%] | cell viability (HepG2 [4]; 100 nM) [%] | cell viability (HepG2 [4]; 1000 nM) [%] | cell viability (HepG2 [4]; 10000 nM) [%] | cell viability (Vero E6 [5]; 1 nM) [%] | cell viability (Vero E6 [5]; 10 nM) [%] | cell viability (Vero E6 [5]; 100 nM) [%] | cell viability (Vero E6 [5]; 1000 nM) [%] | cell viability (Vero E6 [5]; 10000 nM) [%] | drug sensitivity score (U2OS [6]) | drug sensitivity score (Calu-3 [7]) | drug sensitivity score (Caco-2 [8]) | drug sensitivity score (HepG2 [9]) | drug sensitivity score (Vero E6 [10]) | relative viability EC50 (U2OS [11]) [µM] | relative viability EC50 (Calu-3 [12]) [µM] | relative viability EC50 (Caco-2 [13]) [µM] | relative viability EC50 (HepG2 [14]) [µM] | relative viability EC50 (Vero E6 [15]) [µM]
1 | Nc1nc(OCc2ccccc2)c2nc[nH]c2n1 [O6-benzylguanine] | 101 | 99.9 | 100 | 97.3 | 104 | 103 | 89.5 | 107 | 88.1 | 105 | 105 | 95.2 | 98 | 98.7 | 106 | 95.9 | 105 | 96.8 | 108 | 94.6 | 93.6 | 108 | 87.3 | 103 | 90.4 | 0 | 0 | 0 | 0 | 0 | > 10 | > 10 | > 10 | > 10 | > 10
2 | O=C1C(=Cc2cccnc2)C(=O)c2ccccc21 [PRT4165] | 102 | 98.9 | 99.1 | 99.6 | 98.3 | 104 | 103 | 98.4 | 97.4 | 95.6 | 107 | 86.5 | 101 | 87.1 | 98.2 | 113 | 98.5 | 92.1 | 103 | 87.6 | 96.1 | 99 | 103 | 98.4 | 87.6 | 0 | 0 | 0 | 0 | 0.2 | > 10 | > 10 | > 10 | > 10 | > 10
3 | COc1ccc(S(=O)(=O)Nc2nc(-c3cccc([N+](=O)[O-])c3)cs2)cc1OC [Ro-61-8048] | 98.6 | 93.5 | 99.4 | 100 | 106 | 107 | 89.5 | 103 | 97.9 | 124 | 133 | 90.8 | 110 | 124 | 95.8 | 107 | 86.1 | 101 | 102 | 106 | 101 | 97.2 | 85.1 | 102 | 97.9 | 0 | 0 | 0 | 0 | 0 | > 10 | > 10 | > 10 | > 10 | > 10
4 | Cc1ccc(S(=O)(=O)N2CCC[C@H]2c2ccc(F)cc2)cc1 [Ro-67-7476] | 98.8 | 95.1 | 107 | 99.4 | 99.2 | 106 | 101 | 94.4 | 98.1 | 105 | 96.6 | 102 | 102 | 97.3 | 104 | 106 | 104 | 96.2 | 102 | 97.4 | 109 | 104 | 94.1 | 104 | 100 | 0 | 0 | 0 | 0 | 0 | > 10 | > 10 | > 10 | > 10 | > 10

Reference: the supplement of paper PMC13380429
